{"source": "paper PMC13172357", "about": "(Nature Communications, 2026)", "key": {"[1]": {"biological_target": "T1, USP7 (Homo sapiens, UniProt Q93009)", "T1 construct": "allowed the analysis of endogenous USP7 degradation in both cell lines; endogenous in cells; host or cells: Panc89 (PDAC) and Ma-Mel-47 (melanoma) cells", "T1 sequence (Q93009 whole entry)": "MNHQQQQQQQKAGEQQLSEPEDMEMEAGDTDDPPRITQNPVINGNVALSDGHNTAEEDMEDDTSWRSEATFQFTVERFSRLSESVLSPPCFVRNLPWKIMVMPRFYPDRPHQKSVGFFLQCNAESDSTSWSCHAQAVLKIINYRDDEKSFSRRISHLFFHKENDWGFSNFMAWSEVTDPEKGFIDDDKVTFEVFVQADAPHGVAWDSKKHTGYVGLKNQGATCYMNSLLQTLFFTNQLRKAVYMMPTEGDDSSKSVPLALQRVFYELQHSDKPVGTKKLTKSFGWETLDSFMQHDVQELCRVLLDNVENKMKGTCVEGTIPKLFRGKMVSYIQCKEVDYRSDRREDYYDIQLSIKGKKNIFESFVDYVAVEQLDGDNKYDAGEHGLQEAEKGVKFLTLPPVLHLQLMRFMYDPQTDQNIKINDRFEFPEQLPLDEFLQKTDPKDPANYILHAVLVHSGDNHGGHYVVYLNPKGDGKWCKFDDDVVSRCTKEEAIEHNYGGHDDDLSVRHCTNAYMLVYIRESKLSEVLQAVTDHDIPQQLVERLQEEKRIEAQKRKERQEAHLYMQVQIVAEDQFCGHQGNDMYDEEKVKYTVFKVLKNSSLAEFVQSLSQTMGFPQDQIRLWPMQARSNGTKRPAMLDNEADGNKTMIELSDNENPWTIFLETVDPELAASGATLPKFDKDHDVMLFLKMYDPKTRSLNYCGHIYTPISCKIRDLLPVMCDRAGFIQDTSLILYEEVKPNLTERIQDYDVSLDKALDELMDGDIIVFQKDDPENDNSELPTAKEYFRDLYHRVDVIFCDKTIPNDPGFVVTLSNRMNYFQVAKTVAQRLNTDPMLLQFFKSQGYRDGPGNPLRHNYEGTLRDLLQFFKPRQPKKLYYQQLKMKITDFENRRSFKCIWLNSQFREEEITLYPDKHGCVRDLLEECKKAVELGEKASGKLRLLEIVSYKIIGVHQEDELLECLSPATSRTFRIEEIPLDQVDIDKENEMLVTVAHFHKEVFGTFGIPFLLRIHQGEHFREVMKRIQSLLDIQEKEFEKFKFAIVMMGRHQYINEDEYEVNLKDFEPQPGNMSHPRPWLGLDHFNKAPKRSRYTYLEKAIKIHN", "assay": "PROTAC rescue experiments, Western blot, Panc89 and Ma-Mel-47 cells", "type": "cell-based", "settings": "2 h pretreatment (MLN4924 500 nM, CFZ 250 nM, NK249 10 µM), then 1 µM NK250 or NK266 for 20 h", "procedure": "Cells were treated with proteasome inhibitor Carfilzomib (CFZ, 250 nM), NEDDylation Inhibitor MLN4924 (500 nM) or VHL inhibitor NK249 (10 µM). After 2 h, PROTAC (1 µM) was added. Cells were analyzed after 20 h."}, "[2]": {"biological_target": "T1, USP7", "assay": "USP7 degradation, Western blot densitometry, Panc89 cells", "type": "cell-based", "settings": "Panc89, 5 µM, 24 h, Western blot", "procedure": "(§1) The melanoma cell line Ma-Mel-47 (established previously[57] from metastatic lesions from patient tumor tissues after written informed consent) and the PDAC cell line Panc89 (RRID: CVCL_4056, also referenced as T3M-4[58]) were cultured in a humidified incubator with 5% CO2 at 37 °C in RPMI1640 (Ma-Mel-47) / DMEM (Panc89) medium containing 10% (v/v) fetal calf serum (FCS) and penicillin/streptomycin (all Gibco, Thermo Fisher Scientific). Studies on human material were approved by the institutional review board. […] Testing for mycoplasma was performed by PCR monthly. To confirm cell identity, STR analysis was performed by the Microsynth Seqlab GmbH.\n(§2) To prepare samples for Western blot analysis, cells were seeded in 6-well dishes the day before treatment to adhere at 70–80% confluency.\n(§3) Cell pellets of all PDAC samples were lysed via adding a buffer containing 150 mM NaCl, 50 mM Tris/HCl (pH 7.4), 1% Triton X-100, 10 mM EDTA, 1 mM PMSF, 10 mM orthovanadate, and 1% aprotinin, incubating on ice for 1 h with vortexing every 15 minutes. Lysates were cleared of cell debris by centrifugation at 10,000 ×g at 4 °C for 10 min. […] Lysates were then clarified of cell debris by centrifugation at 13,000 ×g at 4 °C for 15 min. Thereafter, the total protein concentrations were either determined immediately or the protein extracts were stored at −20 or −80 °C. Pellets for samples shown in Fig. 6 and Supplementary Fig. 6 were lysed in 120 µL lysis buffer (50 mM Tris pH 8.0, 150 mM NaCl, 1% (v/v) IGEPAL, 0.5% (w/v) Na-deoxycholate, 0.1% (w/v) SDS) supplemented with 1x EDTA-free inhibitor protease cocktail (cOmplete, Roche) for 15 min at 4 °C. 0.2 µL Turbonuclease (Sigma Aldrich) and 5 mM MgCl2 were then added and lysates were incubated for 15 min at 4 °C. Cell debris was separated by centrifugation at 20,817 ×g for 15 min at 4 °C.\n(§4) Protein concentrations of cell lysates were measured using the Pierce BCA Protein Assay (Thermo Fisher Scientific) or the Quick Start Bradford Protein Assay (Bio-Rad), following the manufacturers’ protocols. Measurements were recorded on Tecan Spark or Tecan Infinite M200 plate readers. Lysates were kept on ice throughout the entire process.\n(§5) To separate proteins via SDS-PAGE, 10-20 µg of protein in lysis buffer was diluted with SDS-PAGE loading buffer (for most blots containing DTT or 2-mercaptoethanol) and denatured at 95 °C for 5 min. Protein separation was conducted at 95–110 V using the Mini-PROTEAN electrophoresis system (Bio-Rad). Proteins were then transferred to PVDF or nitrocellulose membranes using the Trans-Blot Turbo system (Bio-Rad) with the Trans-Blot Turbo RTA Kit for PVDF membranes. Prior to transfer, membranes were activated by soaking in 100% ethanol (for PVDF) or distilled water (for nitrocellulose) and proteins were transferred using the Mixed MW or the standard (1.0 A, 25 V, 30 min) protocol.\n(§6) After transfer, membranes were blocked in 5% (w/v) milk/TBS-T for 1 h and then washed three times for 10 min with TBS-T. They were incubated overnight at 4 °C with the primary antibody in 5% (w/v) milk/TBS-T or 1% (w/v) BSA/TBS-T. Membranes were then washed three times for 10 min with TBS-T and incubated with horseradish peroxidase (HRP)-conjugated secondary antibodies in a solution of 5% (w/v) BSA/TBS-T or 1% (w/v) milk/TBS-T for 1 h at room temperature. PBS-T was used for blots shown in Fig. 6 and Supplementary Fig. 6.\n(§7) Membranes were incubated with Clarity Western ECL substrate (Bio-Rad) for PDAC samples or Pierce ECL Western Blotting-Substrate (Thermo Fisher Scientific) for melanoma. Chemiluminescent signals were detected with a ChemiDoc Imaging System (Bio-Rad) for PDAC samples or with a ECL Chemostar Imager (Intas Science Imaging) for melanoma samples.\n(§8) Densitometric quantification of band intensities for Fig. 2c, d was performed using the ImageJ software."}, "[3]": {"biological_target": "T1, USP7", "assay": "USP7 degradation, Western blot densitometry, Ma-Mel-47 cells", "type": "cell-based", "settings": "Ma-Mel-47, 5 µM, 24 h, Western blot", "procedure": "as §1, §2, §3, §4, §5, §6, §7, §8"}, "[4]": {"biological_target": "HiBiT-USP7 (Homo sapiens, UniProt Q93009)", "sequence (Q93009 whole entry, the tested form may be a part)": "as the sequence (Q93009 whole entry) above", "assay": "HiBiT USP7 degradation assay, MV4-11 cells", "type": "cell-based", "settings": "MV4-11 HiBiT-USP7, 6 h and 24 h", "procedure": "HiBiT-USP7 construct was cloned by extraction of USP7 fragment from plasmid pQHA-USP7 WT puroR (Addgene #46753) using appropriate restriction sites. The USP7 fragment was then ligated into the pRRL-PGK-HiBiT entry vector to generate the plasmid.\nLentiviral infection was used to generate stable a MV4-11 HiBiT cell line. Lentivirus was produced using plasmids psPAX2, pMD2.G, and HiBiT-USP7 plasmid in HEK293 cells. MV4-11 cells were infected with filtered virus supernatant and selected after 48 h of infection for the generation of the stable MV4-11^HiBiT-USP7 cell line.\nThe assay was performed as described previously. Briefly, MV4-11^HiBiT-USP7 cells were seeded and treated with compounds for the indicated time. Nano-Glo HiBiT Lytic Detection System (Promega) was used for the assay and luminescence was measured on a Tecan Spark microplate reader (Tecan). DC50 values were calculated using the sigmoidal dose-response (four parameters) equation in GraphPad Prism and are given as the concentration where 50% of the total signal was remaining. Dmax values are given as the maximum degradation observed at any concentration."}, "[5]": {"biological_target": "T2, NanoLuc-USP7 and HaloTag-VHL (Homo sapiens, UniProt P40337+Q93009)", "T2 construct": "expressed in transfected cells; host or cells: HEK293T, transient transfection (FuGENE HD)", "T2 sequence (Q93009 whole entry)": "as above", "T2 sequence (P40337 whole entry)": "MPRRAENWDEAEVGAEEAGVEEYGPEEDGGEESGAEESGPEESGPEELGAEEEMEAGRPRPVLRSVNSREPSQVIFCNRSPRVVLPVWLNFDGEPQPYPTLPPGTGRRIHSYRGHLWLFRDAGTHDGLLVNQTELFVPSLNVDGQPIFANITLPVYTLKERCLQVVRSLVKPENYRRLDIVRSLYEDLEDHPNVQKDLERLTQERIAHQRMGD", "T2 sequence (Q15370 whole entry partner)": "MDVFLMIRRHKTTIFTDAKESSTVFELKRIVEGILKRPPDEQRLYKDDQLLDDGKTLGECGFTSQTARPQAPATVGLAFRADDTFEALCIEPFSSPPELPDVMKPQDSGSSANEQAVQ", "T2 sequence (Q15369 whole entry partner)": "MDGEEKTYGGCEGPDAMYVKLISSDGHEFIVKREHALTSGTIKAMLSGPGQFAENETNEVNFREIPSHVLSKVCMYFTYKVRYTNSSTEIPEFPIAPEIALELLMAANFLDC", "assay": "Cellular ternary complex formation assay (NanoBRET), HEK293T cells", "type": "cell-based", "settings": "for Ternary complex induction (in words): NanoBRET", "procedure": "The assay was performed as described step-by-step elsewhere. USP7 (NanoLuc-USP7) and VHL (HaloTag-VHL) were cloned in frame with N-terminal NanoLuc or HaloTag, respectively. For transfections, HEK293T cells were diluted in Opti-MEM medium without phenol red (Life Technologies) to 4×10^5 cells/mL and 9 µL were pipetted into each well of a white 384-well plate (Greiner 781207). 1 mL transfection mix was prepared containing 30 µL FuGENE HD (Promega, E2312) and 8 µL of each plasmid, incubated 20 min at RT and 1 µL were pipetted into each well leading to the total assay volume of 10 µL. […] 2 h prior to BRET measurements, the compounds were titrated to the cells using an Echo acoustic dispenser and the cells were incubated further at 37 °C and 5% CO2 to allow complex formation. NanoBRET Nano-Glo substrate and Extracellular NanoLuc Inhibitor (Promega, N2540) were then added as per the manufacturer’s protocol, and filtered luminescence was recorded on a PHERAstar FSX plate reader (BMG Labtech) equipped with a luminescence filter pair (donor: 450 nm BP filter; acceptor: 610 nm LP filter). Data were analyzed using GraphPad Prism 10 software."}, "[6]": {"biological_target": "T3, human USP7 full length protein (Homo sapiens, UniProt Q93009)", "T3 construct": "human USP7 full length protein", "T3 sequence (Q93009 whole entry)": "as the sequence (Q93009 whole entry) above", "assay": "USP7 inhibition assay (Ubiquitin-Rhodamine110Gly cleavage)", "type": "biochemical", "settings": "Ub-RhoG cleavage, read-out: IC50 (half-maximal inhibition)", "procedure": "USP7 inhibitors in DMSO were diluted in UbR buffer (40 mM Tris-HCl pH 8, 150 mM NaCl, 1 mM TCEP, 0.1 mg/mL BSA, 0.01% Tween20) to a concentration of 80 μM (4x). This stock was then further diluted in an 11-times serial dilution in UbR buffer containing 4% DMSO (4x). To this was added the same volume of human USP7 full length protein[59] […] The assay was initiated upon addition of 10 μL per well of Ubiquitin-Rhodamine110Gly (Ub-RhoG) (100 nM in UbR buffer, 2x). […] Normalization was carried out using samples featuring either no inhibitor or no enzyme as respective controls. […] Slopes of fluorescence over time curves were determined with Microsoft Excel through linear regression using the first 15 min of each measurement."}, "[7]": {"system": "Panc89 cells", "assay": "Confluence measurement (cell growth), Panc89", "type": "cell-based, human", "settings": "Panc89, 1-10 µM, 72 h, 25 mM or 5 mM D-glucose"}, "[8]": {"system": "Ma-Mel-47 USP7 K.O. cells", "assay": "Medium color switch (images), Ma-Mel-47 USP7 K.O. cells", "type": "cell-based, human", "settings": "Ma-Mel-47 USP7-KO, 72 h, 5 µM NK192, 10 µM FT671, 1 µM NK266"}}}
{"smiles": "NS(=O)(=O)OC[C@@H]1C[C@@H](n2ccc3c(N[C@H]4CCc5ccccc54)ncnc32)C[C@@H]1O", "note": "[MLN4924, Pevonedistat]", "values": [{"measurement": "Rescue of PROTAC-mediated USP7 degradation (in words)", "setting": "[1]", "value": "rescued PROTAC-mediated degradation of USP7"}]}
{"smiles": "Cc1ncsc1-c1ccc(CNC(=O)C2CC(O)CN2C(=O)C(NC(=O)C2CCC(C(=O)N3CCN(c4ccc(-n5ncc6c(=O)n(CC7(O)CCN(C(=O)CC(C)c8ccccc8)CC7)cnc65)cc4)CC3)CC2)C(C)(C)C)cc1", "note": "(stereo not shown) [NK225]", "values": [{"measurement": "USP7 degradation (in words)", "setting": "[2]", "value": "effectively degraded USP7"}, {"measurement": "USP7 degradation (in words)", "setting": "[3]", "value": "robust degradation of USP7"}, {"measurement": "HiBiT-USP7 levels (in words)", "setting": "[4]", "value": "lower potency"}, {"measurement": "EC50", "setting": "[5]; compound 2 h prior BRET measurement, read-out: EC50 (half-maximal ternary complex formation concentration)", "value": 144, "unit": "nM"}]}
{"smiles": "CCc1c(-c2ccc3[nH]ncc3c2)cnc(N)c1-c1ccc(O)cc1", "note": "[GNE-6640]", "values": [{"measurement": "IC50", "setting": "[6]", "value": 545, "unit": "nM"}]}
{"smiles": "CC(C)C[C@H](NC(=O)[C@H](CCc1ccccc1)NC(=O)CN1CCOCC1)C(=O)N[C@@H](Cc1ccccc1)C(=O)N[C@@H](CC(C)C)C(=O)[C@@]1(C)CO1", "note": "[carfilzomib, Carfilzomib]", "values": [{"measurement": "Rescue of PROTAC-mediated USP7 degradation (in words)", "setting": "[1]", "value": "rescued PROTAC-mediated degradation of USP7"}]}
{"smiles": "Cc1ncsc1-c1ccc([C@H](C)NC(=O)[C@@H]2C[C@@H](O)CN2C(=O)[C@@H](NC(=O)C2(F)CC2)C(C)(C)C)cc1", "note": "[NK249]", "values": [{"measurement": "Rescue of PROTAC-mediated USP7 degradation (in words)", "setting": "[1]", "value": "rescued PROTAC-mediated degradation of USP7"}]}
{"smiles": "CC(=O)c1cc([N+](=O)[O-])c(Sc2cccc(Cl)c2Cl)s1", "note": "[P5091]", "values": [{"measurement": "IC50", "setting": "[6]", "value": 2070, "unit": "nM"}]}
{"smiles": "O=C(C[C@@H](C(F)F)n1ccc(F)n1)N1CCC(O)(Cn2cnc3c(cnn3-c3ccc(F)cc3)c2=O)CC1", "note": "[FT671, reference compound]", "values": [{"measurement": "IC50", "setting": "[6]", "value": 13, "unit": "nM"}, {"measurement": "Cell growth (in words)", "setting": "[7]", "value": "not affected"}, {"measurement": "Change of media color (in words)", "setting": "[8]", "value": "the same change of media color"}]}
{"smiles": "Cc1ncsc1-c1ccc(CNC(=O)[C@@H]2C[C@@H](O)CN2C(=O)[C@@H](NC(=O)C23C4C5C2C2C3C4C52C(=O)N2CCC(C3CCN(c4ccc(-n5ncc6c(=O)n(CC7(O)CCN(C(=O)C[C@@H](C)c8ccccc8)CC7)cnc65)cc4)CC3)CC2)C(C)(C)C)cc1", "note": "(stereo partly shown) [NK233]", "values": [{"measurement": "USP7 degradation (in words)", "setting": "[2]", "value": "effectively degraded USP7"}, {"measurement": "USP7 degradation (in words)", "setting": "[3]", "value": "robust degradation of USP7"}, {"measurement": "HiBiT-USP7 levels (in words)", "setting": "[4]", "value": "lower potency"}, {"measurement": "Ternary complex induction (in words)", "setting": "[5]", "value": "did not increase the BRET signal to the same level"}]}
{"smiles": "CC(CC(=O)N1CCC(O)(Cn2cnc3c(cnn3-c3ccc(N4CCN(C(=O)CCOCCOCCOCCNC(=O)CCCCC5SCC6NC(=O)NC65)CC4)cc3)c2=O)CC1)c1ccccc1", "note": "(stereo not shown) [NK264]", "values": [{"measurement": "IC50", "setting": "[6]", "value": 15, "unit": "nM"}]}
{"smiles": "Cc1ncsc1-c1ccc(CNC(=O)[C@@H]2C[C@@H](O)CN2C(=O)[C@@H](NC(=O)C2(C#N)CC2)C(C)(C)C)cc1", "note": "[VH298, reference compound]", "values": [{"measurement": "Ternary complex induction (in words)", "setting": "[5]", "value": "neither the negative control NK245 nor the VHL ligand VH298 induced a ternary complex"}]}
{"smiles": "CN1CCN(CCC(=O)Nc2ccc3c(=O)n(CC4(O)CCN(C(=O)[C@@H](CCCNC(=O)c5ccc6c(Cl)c7c(nc6c5)CCCC7)Cc5ccccc5)CC4)cnc3c2)CC1", "note": "[XL177A]", "values": [{"measurement": "IC50", "setting": "[6]", "value": 91, "unit": "nM"}]}
